Source: patent publication US20060173022A1, “Heterocyclic amides, method for the production thereof, substances containing said heterocyclic amides, and use thereof as pesticides” (Bayer CropScience GmbH, priority 2003, published 2006)

SMILES: CO/N=C/CCNC(=O)c1cnccc1C(F)(F)F [Example I, N-(4-Trifluoromethylnicotinoyl)-3-aminopropionaldehyde O-methyl oxime]
- melting point: 80 to 82 °C
